In patent US6096874A (Board of Regents, the University of Texas System, priority 1995, dated 2000):
Read-outs that look alike come from different tables or passages of the source.

Legend:
[1] = molecular target: T1, estrogen receptor (Sus scrofa, UniProt Q29040); conditions: for RBA (IC50 ratio between tamoxifen and competitor): Table 7, tamoxifen printed as 1; for Enhancement of estrogen receptor binding affinity: compared to tamoxifen
T1 sequence (Q29040 1-595): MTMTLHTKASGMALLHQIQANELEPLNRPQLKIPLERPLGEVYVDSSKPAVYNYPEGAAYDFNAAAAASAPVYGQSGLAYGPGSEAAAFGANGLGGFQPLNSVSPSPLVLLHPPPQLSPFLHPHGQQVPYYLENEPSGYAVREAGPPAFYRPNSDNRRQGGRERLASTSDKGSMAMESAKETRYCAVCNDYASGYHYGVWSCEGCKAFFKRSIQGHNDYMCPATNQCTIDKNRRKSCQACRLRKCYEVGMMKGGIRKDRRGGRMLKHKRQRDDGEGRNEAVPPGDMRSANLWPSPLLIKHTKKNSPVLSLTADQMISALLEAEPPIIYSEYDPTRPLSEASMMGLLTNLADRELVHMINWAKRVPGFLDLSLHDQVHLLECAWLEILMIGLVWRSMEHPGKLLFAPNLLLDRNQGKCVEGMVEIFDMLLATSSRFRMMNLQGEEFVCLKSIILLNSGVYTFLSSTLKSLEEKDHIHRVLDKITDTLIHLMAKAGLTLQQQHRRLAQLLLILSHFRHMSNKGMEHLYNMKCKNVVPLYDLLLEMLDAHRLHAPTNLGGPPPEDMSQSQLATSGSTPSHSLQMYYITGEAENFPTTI
Procedure: (§1) A previously reported procedure was modified by the inventors and used for this purpose.^10,11 TEA buffer was used by the Inventors for tissue preparation.
(§2) Briefly, uteri (90 gm) were obtained from immature domestic swine (15 kg) was homogenized in Tris buffer (10 mM, pH 7.4) (1 uterus/180 ml), which contained EDTA (1.5 mM) and sodium Azide (3 mM). The homogenate was centrifuged at 100,000 g for 1 hour at 4° C. Uteri cytosol (contains 2% of protein from corresponding uterus tissue) were then pretreated with dextran-coated charcoal as described.^10 Protein concentrations were determined according to the method of Lowry et al.^12
(§3) *The relative binding affinity (RBA) for the pig uteri estrogen receptor

[2] = tested on: MCF7 cells; experiment: MCF7 breast tumor cell growth inhibition, 72 h, MTT tetrazolium dye assay; assay type: cell-based, human; conditions: for Tumor cell inhibition (in words) / Potency against MCF7 compared with tamoxifen: 72 h; for RP (relative potency): tamoxifen = 100
Procedure: The MCF7 cell line is a human tumor cell line. This cell line was cultured in MEM (Eagles) media in a 5% CO^2 atmosphere with 10% fetal calf serum that had been washed twice with dextran coated charcoal to reduce endogenous estrogen levels. The media was supplemented with 1 mM sodium pyruvate and 100 μm non-essential amino acids. The cell line was screened routinely for myoplasma contamination using the GenProbe kit (Fisher). Cells were trypsinized and plated at a density of 5,000 cells/well in 96 well microtiter plates and allowed to attach and recover for 24 hours.
The media was removed by aspiration and replaced with filter sterilized drug (concentration from 10^-4 M to 10^-5 M) in media. The cells were incubated for 72 hours and then stained using the mTT tetrazolium dye assay of Mosmann^36 except that after the media was removed, the blue formazan product was solubilized in 50 μl/well DMSO.

[3] = molecular target: T2, estrogen receptor (Homo sapiens, UniProt P03372); conditions: cited from earlier work; for Estrogen receptor binding / detection potency (in words): compared to tamoxifen
T2 sequence (P03372 1-595): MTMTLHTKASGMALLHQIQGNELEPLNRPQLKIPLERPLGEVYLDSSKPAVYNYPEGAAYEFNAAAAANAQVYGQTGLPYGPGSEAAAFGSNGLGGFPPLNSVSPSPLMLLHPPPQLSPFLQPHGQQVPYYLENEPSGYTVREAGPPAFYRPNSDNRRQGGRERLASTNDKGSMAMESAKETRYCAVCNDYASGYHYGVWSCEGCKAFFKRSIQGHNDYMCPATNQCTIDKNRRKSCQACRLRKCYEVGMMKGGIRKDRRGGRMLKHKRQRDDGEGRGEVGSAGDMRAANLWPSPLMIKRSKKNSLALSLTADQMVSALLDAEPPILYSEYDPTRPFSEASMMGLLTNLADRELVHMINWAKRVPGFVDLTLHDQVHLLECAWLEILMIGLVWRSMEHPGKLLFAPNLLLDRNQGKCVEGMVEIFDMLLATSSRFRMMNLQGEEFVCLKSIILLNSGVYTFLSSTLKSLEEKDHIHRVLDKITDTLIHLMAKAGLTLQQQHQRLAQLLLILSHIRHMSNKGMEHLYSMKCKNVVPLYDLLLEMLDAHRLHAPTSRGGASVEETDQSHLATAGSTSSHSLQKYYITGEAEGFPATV

[4] = compared to tamoxifen; cited from earlier work
[5] = in vivo; parameters: species or system rat; conditions: compared with DTPA-Tamoxifen and DTPA-Vitamin A conjugates
Procedure: In animal tissue distribution studies, each rate was given 8.9 μCi (0.15 ml) tracer intravenously. The tumor-bearing rats were killed at 1, 3, 6 and 24 h. […] The amount of DES given should occupy tumor estrogen receptor sites. The methods for inducing tumors in rats was as described by those of skill in the art (radiology). […]
Female Fisher 344 rats (250-275 g) (Harlan, Inc., Indianapolis, Ind.) were inoculated with mammary tumor cells using the 13762 tumor cell line (s.c. 10^5 cells/rat). After 14 days, a tumor size of 1-2 cm was observed. For ^131 I-ITX studies, five groups of rats (N=3/group) were anesthetized with ketamine (10-15 mg/rat). The trans ^131 I-ITX was given to four of the five groups (8.9 μCi/rat, i.v.) and biodistribution was studied at 1, 3, 6 and 24 h intervals. In blocking studies, the fifth group of rats was given diethylstilbestrol (DES) (1.2 mg/rat) for 1 h, followed by 8.9 μCi of ^131 I-ITX; biodistribution was studied 6 h later. The tissues were collected at different time intervals. The tissues were weighted and counted for radioactivity. The percent of injected dose per gram of tissue weight was calculated. […]

[6] = molecular target: T1, estrogen receptor; experiment: biochemical
Procedure: as §1, §2, §3

[7] = In vivo tissue uptake in rat (% injected dose per organ, n=5)
[8] = Acute/immediate toxicity following i.v. injection in BALB/c mice; conditions: for MTD / Maximum dose tolerated: mouse, in vivo, iv; for Mice died: 20 mg/kg i.v.
Procedure: Acute toxicity studies were performed in BALB/c female mice with doses tested at 20, 50 and 200 mg/kg (i.v., n=5 mice per dose).

## CCN(CC)CCOc1ccc(/C(=C(\CCF)c2ccccc2)c2ccccc2)cc1 (single isomer, unassigned) [IV (Cis), N,N-diethyl-fluorotamoxifen]
[1]; tamoxifen = 100
  RBA (relative binding affinity): 100
[2]
  Tumor cell inhibition (in words): effective as inhibiting a breast tumor cell line
[2]; listed as cis N,N-diethyl-fluoro
  Tumor cell inhibition (in words): more potent than the trans isomers

## CC/C(=C(/c1ccccc1)c1ccc(OCCN2CC2)cc1)c1ccccc1 (single isomer, unassigned) [cis isomer of tamoxifen azizidine]
[3]; versus trans isomer or native tamoxifen
  Decrease in estrogen receptor binding affinity: 50 fold

## CC/C(=C(\c1ccc(O)cc1)c1ccc(OCCN(C)C)cc1)c1ccccc1 [4-hydroxytamoxifen]
[4]
  Anti-estrogenic / in vivo activity (in words): less effective than tamoxifen in vivo

## CC/C(=C(\c1ccc(OC)cc1)c1ccc(OCCN(C)C)cc1)c1ccccc1 [4-methoxy phenyl derivative]
[4]
  Anti-estrogenic / in vivo activity (in words): about the same as native tamoxifen

## CCN(CC)CCOc1ccc(/C(=C(/CCCBr)c2ccccc2)c2ccccc2)cc1 [(XI) BrM (trans), N,N-diethyl-bromomethyltamoxifen]
[1]
  RBA (IC50 ratio between tamoxifen and competitor): 150
  Enhancement of estrogen receptor binding affinity: 50 fold

## CCN(CC)CCOc1ccc(/C(=C(/CCCCl)c2ccccc2)c2ccccc2)cc1 [(XII) ClM (trans), N,N-diethyl-chloromethyltamoxifen]
[1]; read-out: IC50 estrogen receptor binding, pig uterus, [3H]estradiol 5 nM
  IC50: 0.4 µM

## CC/C(=C(\c1ccc(Cl)cc1)c1ccc(OCCN(C)C)cc1)c1ccccc1 [Compound 4-chloro]
[3]
  Estrogen receptor binding / detection potency (in words): approximately equal activity for estrogen receptor binding affinity
[4]
  Anti-estrogenic / in vivo activity (in words): lower anti-estrogenic activity than tamoxifen

## CC/C(=C(\c1ccc(F)cc1)c1ccc(OCCN(C)C)cc1)c1ccccc1 [Compound 4-fluoro]
[3]
  Estrogen receptor binding / detection potency (in words): approximately equal activity for estrogen receptor binding affinity
[4]
  Anti-estrogenic / in vivo activity (in words): lower anti-estrogenic activity than tamoxifen

## CC/C(=C(\c1ccc(I)cc1)c1ccc(OCCN(C)C)cc1)c1ccccc1 [Compound 4-iodo]
[3]
  Estrogen receptor binding / detection potency (in words): greater potency than tamoxifen

## CC/C(=C(\c1ccc(C)cc1)c1ccc(OCCN(C)C)cc1)c1ccccc1 [Compound 4-methyl]
[3]
  Estrogen receptor binding / detection potency (in words): approximately equal activity for estrogen receptor binding affinity
[4]
  Anti-estrogenic / in vivo activity (in words): lower anti-estrogenic activity than tamoxifen

## CCN(CC)CCOc1ccc(C(=C(CCCF)c2ccccc2)c2ccccc2)cc1 [Compound VI, N,N-diethyl-fluoromethyltamoxifen]
[2]
  Tumor cell inhibition (in words): effective as inhibiting a breast tumor cell line

## CCN(CC)CCOc1ccc(C(=C(CCCI)c2ccccc2)c2ccccc2)cc1 [Compound X, N,N-diethyl-iodomethyltamoxifen]
[2]
  Tumor cell inhibition (in words): effective as inhibiting a breast tumor cell line

## CCN(CC)CCOc1ccc(C(=C(CCCBr)c2ccccc2)c2ccccc2)cc1 [Compound XI, 1-[4-(2-Diethylaminoethoxy)phenyl]-1,2-diphenyl-5-bromo-1-entene]
[1]; listed as Bromomethyl tamoxifen
  Estrogen receptor binding (in words): binds to estrogen receptors with greater affinity than the other halogenated tamoxifen analogs tested
[1]; listed as bromomethyl-Tx
  Estrogen receptor binding (in words): bind to estrogen receptors greater than other halogenated tamoxifens tested
[2]
  Potency against MCF7 compared with tamoxifen: ~25 fold

## NCCc1ccc(NC(=O)CN(CCN(CCN(CC(=O)O)CC(=O)O)CC(=O)O)CC(=O)O)cc1 [DTPA, DTPAp-(amino ethyl) anilide, reference compound]
[5]
  Blood clearance and tumor-to-tissue uptake ratios (in words): faster blood clearance and less tumor-to-tissue uptake ratios

## CCN(CC)CCOc1ccc(/C(=C(/CCCO)c2ccccc2)c2ccccc2)cc1 [III (trans), N,N-diethyl-hydroxymethyltamoxifen]
[1]; tamoxifen = 100
  RBA (relative binding affinity): 400
[2]
  RP (relative potency): 50

## CCN(CC)CCOc1ccc(/C(=C(/CCF)c2ccccc2)c2ccccc2)cc1 [IV (trans), N,N-diethyl-fluorotamoxifen]
[1]
  Enhancement of estrogen receptor binding affinity: two and a half times

## CCN(CC)CCOc1ccc(/C(=C(/CCCN=[N+]=[N-])c2ccccc2)c2ccccc2)cc1 [TX-N3 (trans), Tamoxifen Azide]
[1]
  RBA (relative binding affinity): 80
[6]
  IC50: 38 µM
  Ki: 18.7 µM

## CCN(CC)CCOc1ccc(/C(=C(/CCCN)c2ccccc2)c2ccccc2)cc1 [TX-NH2 (trans), Amino Tamoxifen]
[1]; tamoxifen = 100
  RBA (relative binding affinity): 10
[6]
  IC50: 300 µM
  Ki: 150 µM

## CCN(CC)CCOc1ccc(/C(=C(\CCCF)c2ccccc2)c2ccccc2)cc1 [VI (Cis), N,N-diethyl-fluoromethyltamoxifen]
[2]
  Potency against MCF7 compared with tamoxifen: 3 fold
  Tumor cell inhibition (in words): more potent than the trans isomers

## CCN(CC)CCOc1ccc(/C(=C(\CCCI)c2ccccc2)c2ccccc2)cc1 [X (cis), N,N-diethyl-iodomethyltamoxifen]
[1]
  RBA (IC50 ratio between tamoxifen and competitor): 10
  Enhancement of estrogen receptor binding affinity: 10 fold
[1]; tamoxifen = 100
  RBA (relative binding affinity): 1,000
[2]
  Tumor cell inhibition (in words): more potent than the trans isomers

## CCN(CC)CCOc1ccc(/C(=C(/CCC[131I])c2ccccc2)c2ccccc2)cc1 [^131 I-IMTX (trans)]
[7]; first value (3 h)
  Uterus/muscle ratio: 11.0
[7]; second value (6 h)
  Uterus/muscle ratio: 7.6
[7]; third value (24 h)
  Uterus/muscle ratio: 3.6

## CCN(CC)CCOc1ccc(/C(=C(\CCCBr)c2ccccc2)c2ccccc2)cc1 [cis-BTX]
[8]
  MTD: 50 mg/kg

## CCN(CC)CCOc1ccc(/C(=C(\CCCCl)c2ccccc2)c2ccccc2)cc1 [cis-CITX, chlorotamoxifen]
[8]
  MTD: 50 mg/kg

## CCN(CC)CCOc1ccc(/C(=C(\CCCI)c2ccccc2)c2ccccc2)cc1 [cis-ITX, iodotamoxifen]
[8]
  MTD: 50 mg/kg

## CCN(CC)CCOc1ccc(/C(=C(/CCCBr)c2ccccc2)c2ccccc2)cc1 [trans-BTX]
[8]
  MTD: 50 mg/kg

## CCN(CC)CCOc1ccc(/C(=C(/CCCI)c2ccccc2)c2ccccc2)cc1 [trans-ITX, iodotamoxifen]
[8]
  Mice died: 3/4
  MTD: 8 mg/kg
[8]; listed as trans ITX
  Mice died: 3 out of 4
[8]; i.v.
  Toxicity (in words): lethal effects of transITX were immediate

## Fluorotamoxifen [(VII) FTX (Cis)]
[2]
  RP (relative potency): 224

## fluorotamoxifen [cis-^18 F-FTX]
[8]
  Maximum dose tolerated: 50 mg/kg

## fluorotamoxifen [trans^18 F-FTX]
[8]
  Maximum dose tolerated: 200 mg/kg
